Data set [1] has as its system colchicine binding site on tubulin. The conditions noted are these: compared with colchicine; cited from earlier work.
Data set [2] concerns human cancer cells, including multi-drug resistant cancer cells. The conditions noted are these: wide variety of human cancer cells; cited from earlier work.
For data set [3] the following is noted: cited from earlier work.
A further data set relates to angiogenesis. The conditions noted are these: cited from earlier work.
Another data set relates to HONE-1 cell line. The data set is described as follows: Cell growth inhibition assay on human cancer lines, parental HONE-1. The class given is cell-based. Particulars: NPC, read-out: Cytotoxicity against HONE-1. The protocol: (§1) Cell Growth Inhibition Assay: MCF-7 breast carcinoma cells were maintained in plastic dishes in DMEM medium supplemented with 10% fetal bovine serum. For in vitro treatment, tumor cells were seeded in […] of culture medium/well in 96-well plates to a final cell density of 6×10^3 cell/mL and incubated in a CO2 incubator at 37° C. for 24 h. The cells were treated with at least five different concentrations of a test indole compound, and incubated in a CO2 incubator at 37° C. for 72 h. The number of viable cells was estimated using MTS assay and absorbance was measured at 490 nm. Cytotoxicity of the test compounds was expressed in terms of IC50 values. The values presented represent averages of three independent experiments, each with duplicate samples.
(§2) Cell Growth Inhibition Assay on Multiple-drug Resistant Human Cancer Lines: Indole compounds were tested against several panels of drug-resistant cell lines. It is well known that several anti-mitotic agents, including vinca alkaloid (vincristine, vinblastine) and taxol, have been introduced in clinic to treat various human cancers. […] The mechanisms responsible for taxol resistance include overexpression of p-glycoprotein and mutation of tubulin. For comparison, […] anti-mitotic agents, i.e., Vincristine, VP-16, Cisplatin, CPT (camptothecin), and Taxol (paclitaxel) were also tested against several panels of drug-resistant cell lines. […]

A further data set relates to KB cell line. The data set is described as follows: Cell growth inhibition assay on human cancer lines, parental KB. The class given is cell-based. Particulars: cell type Oral, read-out: Cytotoxicity against KB. The protocol: as §1, §2

Regarding `COc1ccc(/C=C\c2cc(OC)c(OC)c(OC)c2)cc1O` [CA-4, combretastatin A-4], the “Affinity for the colchicine binding site on tubulin relative to colchicine” value in data set [1] is “higher affinity for the colchicine binding site on tubulin than colchicine itself”. Further, in data set [2], the “Cytotoxicity against human cancer cells” value was “strong cytotoxicity”. In data set [3], the Water-solubility entry is given as “low water-solubility”. In addition, in the data set on angiogenesis, the Anti-angiogenesis activity result is recorded as “anti-angiogenesis activity”.
On to `N.N.[Cl][Pt][Cl]` [Cisplatin], for which the IC50 was found to be 3000 nM in the data set on HONE-1 cell line and 3 nM in the data set with KB cell line.

The values are drawn from US6933316B2, “Indole compounds” (National Health Research Institutes, priority 2001, dated 2005).
